According to patent US7906334B2, “Method for reproducing conifers by somatic embryogenesis using lactose as a carbon source” (Cellfor Inc., priority 2003, dated 2011):

Experiments:
[1] = test system: loblolly pine lines LP1 and LP3; experiment: Effect of galactose and galactose-containing sugars during proliferation and prematuration on SE yield; type: cell-based, Pinus taeda (loblolly pine); design: Amount of tissue at the end of the preculture II stage: unit not given here; details: for # SE/g FW / Amount of tissue at the end of the preculture II stage: 1% sucrose, 1.5% maltose, 1.5% lactose or 0.75% galactose
Description: The finding that loblolly pine cultures were capable of utilising galactose is unique. In order to further investigate these phenomenon two lines, LP1 and LP3, were cultured on semi-solid TX medium containing 1.0% lactose and 0.5% sucrose. Cultures were maintained by subculturing the embryogenic tissue every 10 to 14 days to fresh media. All cultures were incubated at 23° C. in the dark. Suspension cultures were initiated as described in Example 3, however, TX medium was supplemented with either 1% sucrose, 1.5% maltose, 1.5% lactose, or 0.75% galactose. These cultures were maintained in liquid media for 4 weeks by weekly transfers to fresh maintenance or prematuration media. After the 4˜week period, 1 ml of the liquid medium containing 0.1 g of tissue consisting of early stage somatic embryos was plated on each […] plates containing ½ LV maturation medium. This medium contained 120 μM ABA and 6.0% sucrose and 1% Phytagel. Eight to ten weeks later, mature somatic embryos were counted and treatments were evaluated based on the number of somatic embryos per gram fresh weight (Table 5).

[2] = test system: Suspension cultures of loblolly lines LP1, LP2, LP3, LP4 and LP5; experiment: Effect of carbon source on liquid maintenance: growth rate and yield of somatic embryos; type: cell-based, Pinus taeda (loblolly pine); details: 1% sucrose
Description: Suspension cultures of loblolly lines LP1, LP2, LP3, LP4 and LP5 were started with 2 g of tissue introduced to 50 ml of TX liquid medium containing different sugars—1% sucrose, 1.5% maltose, or 1.5% lactose. These cultures were maintained in the same liquid media for 2 weeks by weekly transfers to fresh maintenance medium containing the above sugars. Then, 2 g of tissue produced in each maintenance medium was transferred to prematuration media I, containing the same carbon source as the maintenance media. After one week, 1.5 g of tissue from each prematuration medium I was transferred to prematuration media II containing the same sugars. After the 4 week period in liquid media, early stage somatic embryos were collected and plated on ½ LV maturation medium containing 120 μM ABA and 6.0% sucrose and 1% Phytagel. Eight to ten weeks later, mature somatic embryos were counted and treatments were evaluated based on the number of somatic embryos per gram fresh weight (SE/g FW). Table 2 summarises the tissue yield at the end of the 4-week period and the number of mature somatic embryos produced for each line.

[3] = test system: loblolly pine embryogenic tissue; experiment: Effect of carbon source on solid maintenance of loblolly pine; type: cell-based, Pinus taeda (loblolly pine); details: semi-solid TX medium; 1% sucrose, or 1.5% lactose and 0.025% glucose
Description: Tissue induced on sucrose from Example 1 was further maintained on the semi-solid TX medium containing 1% sucrose, and tissue induced on lactose was maintained on semi-solid TX medium containing 1.5% lactose and 0.025% glucose. The tissue morphology of the lines induced on lactose was different from the ones induced on sucrose. […] In order to further increase the proliferation rate, 0.5% sucrose was added to the TX 1.5% lactose-containing medium in place of 0.025% glucose. This medium provided a reasonable bulk-up rate, and growth of embryos was more synchronized than in the 1% sucrose medium.

[4] = test system: Loblolly pine megagametophytes containing immature zygotic embryos; experiment: Effect of carbon source on induction of loblolly pine; type: cell-based, Pinus taeda (loblolly pine)
Description: Female gametophytes containing the immature zygotic embryos were used as explants. The cones were surface sterilized in 10% bleach solution for 15 min. They were rinsed 3 times with sterile water, air dried and stored in polyethylene bags at 4° C. until used. Seeds were sterilized in 3% hydrogen peroxide containing 0.1% Tween 20 and rinsed in sterile deionized water. Megagametophytes containing the immature embryos were plated on TX medium (Table A) supplemented with 2.2 mg/l 2,4-D, 1 mg/l BA and 0.3% Phytagel and containing either 1% sucrose, or 1.5% lactose and 0.025% glucose.
Cultures were maintained on the two media by subculturing the embryogenic tissue every 10 to 14 days to fresh media. All cultures were incubated at 23° C. in the dark.

[5] = test system: Douglas fir embryogenic tissue, cell line DF-2; experiment: Effects of carbohydrates on liquid maintenance of Douglas fir embryogenic tissue; type: cell-based, Pseudotsuga menziesii (Douglas fir); details: 3 weeks suspension maintenance/bulking-up, 0.5% galactose, 1% lactose, 0.5% mannitol
Description: The culture medium for Douglas fir was TX medium (see Table A) with the following additives: glutamine 100 mg., Casein hydrolysate 100 mg., and pH 5.8. The following compounds were added into the basal medium for Douglas fir somatic embryo development at different stages: • 1) Induction medium: 18 μM 2,4-D and 9 μM BA, phytagel 0.28%, sucrose 1% • 2) Solid maintenance medium: 9 μM 2,4-D and 4.5 μM BA, phytagel 0.28%, sucrose 1%. • 3) Liquid maintenance and bulking-up medium: 9 μM 2,4-D and 4.5 μM BA, different carbon sources for experiments. • 4) Liquid pre-treatment medium: 20 (first week) or 30 μM ABA (second week), 10% PEG4000 (first week) or PEG1500 (second week), different carbon sources as described in examples below. • 5) Solid maturation media: TX (Table A) plus 0.02% NH4NO3 • Medium I. 40 μM ABA, 10% PEG 1500, maltose 2.5%, phytagel 0.6% • Medium II. 60 μM ABA, 10% PEG1500, maltose 2.5% and sucrose 1%, phytagel 0.8% • Medium III. 70 μM ABA, 6% PEG1500, sucrose 6%, phytagel 1%.
Embryogenic tissue was induced from immature zygotic embryos. The cones and seeds were surface-sterilised as described for pines, and embryos were dissected out from megagametophytes. The embryos, with the attachment of suspensors to their megagametophytes, were placed on the surface of induction medium. The culture was kept in darkness at 23° C. Embryogenic tissue was sub-cultured once every two weeks onto solid maintenance medium.
Embryogenic tissue of Douglas fir was collected from solid maintenance culture and one gram of tissue was transferred into a 200 ml flask containing 50 ml TX (see Table A) liquid maintenance medium. The liquid maintenance medium was supplied with different sugars (Table 8).
The tissue was drained, weighed and sub-cultured once per week. During a culture period of three weeks, the highest tissue growth was found in the culture with glucose as the major carbon source. The media containing sucrose, maltose and galactose also supported a fast tissue growth. With these latter sugars, tissue increased to 68 to 100 fold in three weeks. Tissue grew little in the media containing lactose or mannitol. […] Similar results were obtained within two cell lines, DF-7A and DF-2.

[6] = test system: Douglas fir embryogenic tissue; experiment: Medium osmolarity before and after one-week tissue inoculation; type: cell-based, Pseudotsuga menziesii (Douglas fir); details: medium with 0.5% galactose, 1% lactose, 0.5% mannitol or 0.5% glucose
From the text: More change of medium osmolarity occurred during week 2 than week 1. The medium osmolarity changed little when lactose or mannitol was used in the media.

[7] = test system: loblolly pine lines LP2, LP3 and LP4; experiment: Effect of lactose during the prematuration steps; type: cell-based, Pinus taeda (loblolly pine); details: 1% sucrose maintenance
Description: Prematuration for loblolly pine may be performed in two steps: • 1. Prematuration I requires reduction of hormones either by reducing the auxin and cytokinin concentrations to optimally about 1/20 of the concentration of proliferation step, or by adding charcoal at about 0.01 to 1%, or a combination of both. • 2. Prematuration II follows prematuration I and requires an addition of ABA at concentrations of about 5 to 120 μM, preferably 90 μM and no auxin and cytokinins.
In order to further understand the effect of lactose on somatic embryo development, liquid maintenance cultures were started in TX medium containing 1% sucrose as in Example 3. Three lines were used in this experiment, LP2, LP3 and LP4. After the proliferation step, 2 g of the tissue was transferred for one week to prematuration medium I containing different concentrations of lactose—1.5%, 3% and 6%. After that, 1.5 g of tissue produced in the lactose-containing media was further cultured for a week in prematuration medium II containing the same amount of lactose. 3.

[8] = then 1.5% lactose in prematuration I and II
[9] = then 3% lactose in prematuration I and II
[10] = then 6% lactose in prematuration I and II

OC[C@H]1O[C@@H](O[C@H]2[C@H](O)[C@@H](O)C(O)O[C@@H]2CO)[C@H](O)[C@@H](O)[C@H]1O (stereo partly drawn) [Lactose]
embryos produced ([1]; line LP1, as stated in the text): over 1000 embryos | # SE/g FW ([1]; line LP1): 1060 ± 17 SE/g FW | Amount of tissue at the end of the preculture II stage ([1]; line LP1): 28.9 | # SE/g FW ([1]; line LP3): 110 ± 7 SE/g FW | Amount of tissue at the end of the preculture II stage ([1]; line LP3): 8.78 | # SE/g FW ± sd ([2]; 1.5% maltose or 1.5% lactose for 4 weeks in liquid, then 8-10 weeks on 1/2 LV maturation medium): 393 ± 10 SE/g FW | Average amount of tissue produced after 4 weeks in liquid (FW g) ([2]; 1.5% maltose or 1.5% lactose in maintenance and prematuration I and II, started with 2 g): 18.63 g | tissue morphology [3]: more early-stage immature embryos and a limited amount of suspensor type of surrounding tissue | Induction success, lactose medium compared with sucrose medium [4]: greater than three times higher | Tissue growth (fold, mean ± SD) ([5]; additional glucose 0%, 0.5% glucose, 1% sucrose, 1% maltose): 1.40 ± 0.14 fold | Tissue growth (fold, mean ± SD) ([5]; additional glucose 0.025%): 2.75 ± 0.24 fold | Osmolarity before inoculation (mmol/kg, mean ± SD) [6]: 93.33 ± 0.58 mmol/kg | Mean # SE/g FW ± sd [7, 8]: 106 ± 9 SE/g FW | Mean grams FW at the end of prematuration stage [7, 8]: 121.90 g | Mean # SE/g FW ± sd [7, 9]: 209 ± 7 SE/g FW | Mean grams FW at the end of prematuration stage [7, 9]: 216.47 g | Mean # SE/g FW ± sd [7, 10]: 169 ± 10 SE/g FW | Mean grams FW at the end of prematuration stage [7, 10]: 149.13 g
